# Reference: paper PMC12646458, “Structural characterization of the YbbAP-TesA ABC transporter identifies it as a lipid hydrolase complex that extracts hydrophobic compounds from the bacterial inner membrane” (PLOS Biology, 2025)
# Residue numbers refer to the chain shown, from its start.
# T1: TesA (Escherichia coli, UniProt P0ADA1)
# T1 sequence (P0ADA1 27-208): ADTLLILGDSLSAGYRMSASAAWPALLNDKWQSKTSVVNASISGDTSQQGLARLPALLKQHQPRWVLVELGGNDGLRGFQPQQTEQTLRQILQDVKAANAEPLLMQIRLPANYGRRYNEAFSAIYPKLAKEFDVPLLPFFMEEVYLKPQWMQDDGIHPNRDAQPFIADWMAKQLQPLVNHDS
# T2: YbbAP-TesA (Escherichia coli, UniProt P0ADA1)
# T2 construct: co-expressed from pETDuet1-based plasmids in E. coli C43(DE3); His-tag on YbbA; complex in LMNG detergent; 2:1:1 YbbA:YbbP:TesA; Uncharacterized ABC transporter permease YbbP
# T2 sequence (P0ADA1 27-208): T1 sequence (P0ADA1 27-208)
# T2 sequence (P0A9T8 1-228 partner): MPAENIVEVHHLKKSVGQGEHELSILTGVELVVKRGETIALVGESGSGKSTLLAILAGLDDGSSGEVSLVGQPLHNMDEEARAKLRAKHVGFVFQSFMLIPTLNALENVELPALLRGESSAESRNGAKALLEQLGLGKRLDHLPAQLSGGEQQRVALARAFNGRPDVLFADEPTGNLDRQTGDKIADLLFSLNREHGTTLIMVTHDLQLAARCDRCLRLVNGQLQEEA
# T2 sequence (P77504 1-804 partner): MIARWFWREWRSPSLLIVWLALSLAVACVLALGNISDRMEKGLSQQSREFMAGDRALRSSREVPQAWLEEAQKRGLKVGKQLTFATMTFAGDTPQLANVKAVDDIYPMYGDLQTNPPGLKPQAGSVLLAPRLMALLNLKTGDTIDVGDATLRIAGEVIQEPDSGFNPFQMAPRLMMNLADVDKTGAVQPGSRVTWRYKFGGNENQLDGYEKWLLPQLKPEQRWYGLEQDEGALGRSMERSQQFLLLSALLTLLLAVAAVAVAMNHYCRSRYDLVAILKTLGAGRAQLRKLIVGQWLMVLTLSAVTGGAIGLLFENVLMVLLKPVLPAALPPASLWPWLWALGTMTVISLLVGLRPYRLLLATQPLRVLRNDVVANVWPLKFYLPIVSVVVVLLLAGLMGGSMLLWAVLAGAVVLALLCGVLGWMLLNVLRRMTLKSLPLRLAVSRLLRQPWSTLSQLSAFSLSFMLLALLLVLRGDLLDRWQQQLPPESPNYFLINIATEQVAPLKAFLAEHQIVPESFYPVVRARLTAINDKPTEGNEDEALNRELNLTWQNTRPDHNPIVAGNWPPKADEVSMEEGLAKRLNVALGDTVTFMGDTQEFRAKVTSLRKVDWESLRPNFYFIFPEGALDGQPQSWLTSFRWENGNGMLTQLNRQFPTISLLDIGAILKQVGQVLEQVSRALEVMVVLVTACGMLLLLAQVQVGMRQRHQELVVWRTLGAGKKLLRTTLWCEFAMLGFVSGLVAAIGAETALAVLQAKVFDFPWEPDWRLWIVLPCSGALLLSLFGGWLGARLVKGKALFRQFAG
# T3: YbbP (E. coli, UniProt P77504 1-804)
# T3 construct: YbbP, transmembrane component (10 transmembrane helices, two periplasmic domains) of the YbbAP Type VII ABC transporter, Escherichia coli; source: size exclusion chromatography for structure determination), in 0.01% LMNG
# T3 sequence: T2 sequence (P77504 1-804 partner)
# B1: TesA Ser36Ala (enzyme, E. coli, UniProt P0ADA1 27-208, looked up)
# chain: T1 sequence (P0ADA1 27-208) with S10A
# notes: TesA, periplasmic multifunctional esterase/thioesterase/lysophospholipase, Escherichia coli, with the catalytic site mutation Ser36Ala; printed residue numbers fit the precursor with its signal peptide; also called TesA catalytic site mutation (Ser36Ala); source: size exclusion chromatography for structure determination), in 0.01% LMNG
# B2: YbbA (natural protein, E. coli)
# chain: T2 sequence (P0A9T8 1-228 partner)
# notes: also called ABC domain; source: size exclusion chromatography for structure determination), in 0.01% LMNG
# Tests used:
# [1] = tested on: T4, Escherichia coli C43(DE3); experiment: microbe, parasite or virus in culture; set-up: antibiotic susceptibility testing of E. coli strains, MIC, median of replicates; conditions: D=+IPTG +Kan, median MIC, empty pET28, IPTG and kanamycin present
# T4 construct: C43(DE3) carrying empty pET28 vector
# Text: (§1) Supplementary file pbio.3003427.s003.docx: S3 Table Antibiotic susceptibility testing for TesA and YbbP knockout strains. (DOCX)
# Escherichia coli BW25113 = tested on: T5, Escherichia coli BW25113; experiment: microbe, parasite or virus in culture; set-up: antibiotic susceptibility testing of E. coli strains, MIC, median of replicates; conditions: read-out: Median MIC
# T5 construct: BW25113
# Text: as §1
# TesA [2] = target: T1, TesA; experiment: absorbance assay; assay type: biochemical; set-up: isolated TesA; for the cell assays expressed from a pET vector in E. coli delta-tesA (Keio) cells; conditions: isolated TesA
# YbbAP-TesA = target: T2, YbbAP-TesA; experiment: Michaelis-Menten, absorbance at […] nm; assay type: biochemical; conditions: PBS with 0.01% LMNG, 21 °C
# PaTesA = target: T6, PaTesA (Pseudomonas aeruginosa, UniProt Q9HZY8); experiment: absorbance at […] nm; assay type: biochemical; conditions: purified tagged enzyme
# T6 construct: gene tesA; purified, N-terminal tag
# TesA [3] = target: T1, TesA; experiment: ester hydrolysis by live cells expressing TesA, absorbance at […] nm; assay type: cell-based; set-up: for the cell assays expressed from a pET vector in E. coli delta-tesA (Keio) cells; conditions: PBS; live E. coli delta-tesA cells; 2.5 mM substrate after mixing
# YbbP = target: T3, YbbP; experiment: cryo-EM structure; YbbAP-TesA(Ser36Ala) complex with AMP-PNP, co-expressed and co-purified (Ni-affinity, SEC), 0.01% LMNG; 4.6 Å; conditions: both partners purified
# T6 sequence (Q9HZY8 22-201): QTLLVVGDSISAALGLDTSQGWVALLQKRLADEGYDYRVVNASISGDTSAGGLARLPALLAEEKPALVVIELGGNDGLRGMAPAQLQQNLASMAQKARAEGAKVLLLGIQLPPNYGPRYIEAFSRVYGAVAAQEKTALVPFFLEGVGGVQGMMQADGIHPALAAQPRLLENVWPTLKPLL
molecule,measurement,setting,value
CC1(C)S[C@@H]2[C@H](NC(=O)[C@H](N)c3ccccc3)C(=O)N2[C@H]1C(=O)O [Ampicillin],MIC,[1],8 µg/mL
CC(=O)OCC1=C(C(=O)O)N2C(=O)[C@@H](NC(=O)Cc3cccs3)[C@H]2SC1 [Cephalothin],MIC,Escherichia coli BW25113,12 µg/mL
CC1(C)S[C@@H]2[C@H](NC(=O)Cc3ccccc3)C(=O)N2[C@H]1C(=O)O [Penicillin G],MIC,Escherichia coli BW25113,32 µg/mL
O=C(Cc1cccs1)N[C@@H]1C(=O)N2C(C(=O)O)=C(/C=C/c3ccc([N+](=O)[O-])cc3[N+](=O)[O-])CS[C@H]12 [nitrocefin],absorbance assay,TesA [2],YbbAP-TesA (and isolated TesA) can hydrolyze nitrocefin
same,Km,YbbAP-TesA,< 0.01 µM
same,absorbance at 488 nm,PaTesA,We also separately confirmed that the P. aeruginosa TesA can hydrolyze nitrocefin
CCCC(=O)Oc1ccc([N+](=O)[O-])cc1 [p-nitrophenyl butyrate],relative rate,TesA [3],expressing either TesA (or YbbAP-TesA) from a plasmid show robust hydrolytic activity
B1,stoichiometry N,YbbP,1
B2,stoichiometry N,YbbP,2
